pEC50: −log10 of the molar value. ≈ marks a conversion by molar mass, not a printed value. Where “and” joins values, the source holds several entries; their conditions need not be identical. Identical values can stand only once. Like-named read-outs stand apart in the source and are kept apart here.
Assays:
AR = target: T1, AR (Homo sapiens, UniProt P10275); assay: Safety47 panel nuclear hormone receptor AR; type: cell-based; settings: 3 μM
T1 construct: CEREP (CRO panel)
Text: (§1) LOC14 was also submitted for testing in CEREP's Safety47 panel. CEREP is a CRO specializing in preclinical research, discovery and development of new pharmaceutical drugs.

[1] = target: T2, CHRM2 (muscarinic acetylcholine receptor M2) (Homo sapiens, UniProt P08172); assay: Safety47 panel GPCR CHRM2; type: cell-based
T2 construct: CEREP (CRO that ran the panel)
T2 sequence (P08172 whole entry): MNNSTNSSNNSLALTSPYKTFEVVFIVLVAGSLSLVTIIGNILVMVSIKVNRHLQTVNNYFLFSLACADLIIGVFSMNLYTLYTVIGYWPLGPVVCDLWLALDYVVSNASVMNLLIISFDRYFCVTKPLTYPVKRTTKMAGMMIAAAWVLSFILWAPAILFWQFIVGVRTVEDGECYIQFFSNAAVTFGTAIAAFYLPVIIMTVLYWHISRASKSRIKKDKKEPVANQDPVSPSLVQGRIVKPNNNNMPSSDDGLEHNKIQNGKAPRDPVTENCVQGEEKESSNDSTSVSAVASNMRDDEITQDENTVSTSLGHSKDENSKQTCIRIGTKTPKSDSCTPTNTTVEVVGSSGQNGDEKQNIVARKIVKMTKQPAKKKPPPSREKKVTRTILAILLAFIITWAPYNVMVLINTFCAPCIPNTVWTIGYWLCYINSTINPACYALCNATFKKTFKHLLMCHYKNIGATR
Text: as §1

Sigma σ1 = Sigma σ1 (Homo sapiens, UniProt Q99720); assay: Off-target panel, Sigma σ1; type: binding; settings: Conc. 3 μM
CYP1A2 = target: T3, CYP1A2 (Homo sapiens, UniProt P05177); assay: CYP450 inhibition, CYP1A2; type: in vitro ADME; settings: high concentration of 30 μM
T3 construct: Cyprotex (CRO)

ROCK1 = target: T4, ROCK1 (Homo sapiens, UniProt Q13464); assay: Safety47 panel kinase ROCK1; type: biochemical; settings: Inhibitor mode; 3 μM
T4 construct: CEREP (CRO, Safety47 panel)
T4 sequence (Q13464 whole entry): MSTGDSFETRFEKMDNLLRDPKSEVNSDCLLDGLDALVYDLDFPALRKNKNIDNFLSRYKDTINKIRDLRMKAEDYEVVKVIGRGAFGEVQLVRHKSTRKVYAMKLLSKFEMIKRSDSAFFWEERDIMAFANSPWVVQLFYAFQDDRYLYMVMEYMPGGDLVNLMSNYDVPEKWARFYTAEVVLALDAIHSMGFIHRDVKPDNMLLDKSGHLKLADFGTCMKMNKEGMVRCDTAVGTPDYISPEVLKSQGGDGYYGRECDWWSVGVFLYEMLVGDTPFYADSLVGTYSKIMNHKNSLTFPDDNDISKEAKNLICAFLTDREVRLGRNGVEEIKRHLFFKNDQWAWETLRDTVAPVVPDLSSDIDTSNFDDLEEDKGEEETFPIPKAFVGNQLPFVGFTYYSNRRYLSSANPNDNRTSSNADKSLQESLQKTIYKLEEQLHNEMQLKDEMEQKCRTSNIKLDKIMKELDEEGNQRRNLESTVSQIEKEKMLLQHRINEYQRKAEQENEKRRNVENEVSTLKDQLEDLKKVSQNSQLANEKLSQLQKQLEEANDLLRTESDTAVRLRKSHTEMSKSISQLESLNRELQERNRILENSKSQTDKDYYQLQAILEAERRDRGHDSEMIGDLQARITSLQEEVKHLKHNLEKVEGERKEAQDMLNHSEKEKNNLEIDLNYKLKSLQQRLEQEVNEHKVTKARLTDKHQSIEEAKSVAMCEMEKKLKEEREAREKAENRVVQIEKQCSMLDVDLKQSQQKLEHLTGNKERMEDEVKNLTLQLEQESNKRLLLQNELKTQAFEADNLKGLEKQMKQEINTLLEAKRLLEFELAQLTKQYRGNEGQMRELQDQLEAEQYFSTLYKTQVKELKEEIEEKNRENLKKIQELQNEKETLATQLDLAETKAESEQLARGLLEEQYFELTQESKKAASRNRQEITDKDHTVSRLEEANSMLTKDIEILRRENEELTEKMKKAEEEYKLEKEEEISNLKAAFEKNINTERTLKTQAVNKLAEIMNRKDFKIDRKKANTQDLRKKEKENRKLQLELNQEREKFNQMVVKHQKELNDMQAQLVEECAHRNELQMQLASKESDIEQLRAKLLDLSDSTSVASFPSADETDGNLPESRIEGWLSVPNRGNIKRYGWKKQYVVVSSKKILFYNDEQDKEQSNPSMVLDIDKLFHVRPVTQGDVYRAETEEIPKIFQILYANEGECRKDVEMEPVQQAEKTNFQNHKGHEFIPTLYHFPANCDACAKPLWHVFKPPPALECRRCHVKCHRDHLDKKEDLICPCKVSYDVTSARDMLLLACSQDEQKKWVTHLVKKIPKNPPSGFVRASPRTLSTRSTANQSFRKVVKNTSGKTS
Text: as §1

AChE = target: T5, AChE (Homo sapiens, UniProt P22303); assay: Safety47 panel non-kinase enzyme AChE; type: biochemical; settings: Inhibitor mode; 3 μM
T5 construct: CEREP (CRO panel)
Text: as §1

GR = target: T6, GR (Homo sapiens, UniProt P04150); assay: Safety47 panel nuclear hormone receptor GR; type: cell-based; settings: 3 μM
T6 construct: CEREP (CRO panel)
T6 sequence (P04150 whole entry): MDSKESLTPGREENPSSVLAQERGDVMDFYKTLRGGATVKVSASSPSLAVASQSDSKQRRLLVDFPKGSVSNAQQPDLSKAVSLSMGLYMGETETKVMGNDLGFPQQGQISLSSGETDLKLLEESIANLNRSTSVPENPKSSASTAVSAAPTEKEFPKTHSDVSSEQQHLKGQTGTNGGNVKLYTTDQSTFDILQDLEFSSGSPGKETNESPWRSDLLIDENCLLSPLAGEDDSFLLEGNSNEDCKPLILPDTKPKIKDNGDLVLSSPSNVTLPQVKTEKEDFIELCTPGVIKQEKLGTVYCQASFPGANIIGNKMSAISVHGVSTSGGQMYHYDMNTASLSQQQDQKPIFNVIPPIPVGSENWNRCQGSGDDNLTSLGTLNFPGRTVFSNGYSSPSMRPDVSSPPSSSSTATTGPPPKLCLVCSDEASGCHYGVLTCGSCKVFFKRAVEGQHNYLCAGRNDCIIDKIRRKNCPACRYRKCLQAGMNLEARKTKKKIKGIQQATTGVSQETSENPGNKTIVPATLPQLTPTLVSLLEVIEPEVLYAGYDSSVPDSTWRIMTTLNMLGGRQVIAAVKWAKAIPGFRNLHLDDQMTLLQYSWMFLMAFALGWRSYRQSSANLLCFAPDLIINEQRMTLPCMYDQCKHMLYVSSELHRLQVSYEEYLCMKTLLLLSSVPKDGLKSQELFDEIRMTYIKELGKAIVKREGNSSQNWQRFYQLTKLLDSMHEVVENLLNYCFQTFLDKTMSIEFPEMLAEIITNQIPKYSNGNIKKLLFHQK
Text: as §1

[2] = target: Nicotinic Acetylcholine α1, Bungarotoxin (Homo sapiens, UniProt P02708+P07510+Q07001); assay: Off-target panel, Nicotinic Acetylcholine α1; type: binding; settings: read-out: % Inh.
Prostanoid EP4 = Prostanoid EP4 (Homo sapiens, UniProt P35408); assay: Off-target panel, Prostanoid EP4; type: binding; settings: Conc. 3 μM
[3] = Solubility (stock solvent)
nAChR(a4/b2) = target: T7, nAChR(a4/b2) (Homo sapiens, UniProt P17787+P43681); assay: Safety47 panel ion channel nAChR(a4/b2); type: cell-based; settings: 3 μM
T7 construct: CEREP (CRO panel)
T7 sequence (P43681 29-627 limits assumed): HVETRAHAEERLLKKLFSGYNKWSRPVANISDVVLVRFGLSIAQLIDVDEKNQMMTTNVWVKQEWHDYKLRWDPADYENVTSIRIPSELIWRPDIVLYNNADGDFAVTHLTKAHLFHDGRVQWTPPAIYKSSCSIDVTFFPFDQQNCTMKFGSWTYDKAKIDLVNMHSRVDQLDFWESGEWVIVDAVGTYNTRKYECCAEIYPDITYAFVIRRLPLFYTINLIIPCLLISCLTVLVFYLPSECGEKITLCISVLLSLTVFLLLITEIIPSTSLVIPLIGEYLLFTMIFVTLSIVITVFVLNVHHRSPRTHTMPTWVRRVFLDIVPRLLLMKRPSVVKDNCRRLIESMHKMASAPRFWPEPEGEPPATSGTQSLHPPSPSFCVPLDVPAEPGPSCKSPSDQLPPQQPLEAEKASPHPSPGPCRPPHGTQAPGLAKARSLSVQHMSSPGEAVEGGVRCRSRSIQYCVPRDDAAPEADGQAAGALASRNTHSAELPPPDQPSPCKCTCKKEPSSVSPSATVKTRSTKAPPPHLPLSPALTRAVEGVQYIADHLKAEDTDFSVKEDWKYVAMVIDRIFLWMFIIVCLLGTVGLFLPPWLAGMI
T7 sequence (P17787 26-502): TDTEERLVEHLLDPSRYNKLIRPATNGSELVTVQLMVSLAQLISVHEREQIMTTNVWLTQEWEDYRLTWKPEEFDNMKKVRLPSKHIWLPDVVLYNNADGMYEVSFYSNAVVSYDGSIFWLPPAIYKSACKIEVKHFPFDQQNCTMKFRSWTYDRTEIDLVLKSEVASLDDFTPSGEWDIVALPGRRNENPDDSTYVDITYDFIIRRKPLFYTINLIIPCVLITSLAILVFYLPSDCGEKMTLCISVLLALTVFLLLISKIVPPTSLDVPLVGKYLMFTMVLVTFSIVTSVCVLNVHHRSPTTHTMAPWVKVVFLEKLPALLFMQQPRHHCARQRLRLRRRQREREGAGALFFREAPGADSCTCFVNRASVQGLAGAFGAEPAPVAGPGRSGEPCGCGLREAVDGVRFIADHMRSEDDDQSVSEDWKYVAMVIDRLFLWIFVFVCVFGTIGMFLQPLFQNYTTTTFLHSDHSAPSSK
Text: as §1

COX2 = target: T8, COX2 (Homo sapiens, UniProt P35354); assay: Safety47 panel non-kinase enzyme COX2; type: biochemical; settings: Inhibitor mode; 3 μM
T8 construct: CEREP (CRO panel)
Text: as §1

Adrenergic α2A = Adrenergic α2A (Homo sapiens, UniProt P08913); assay: Off-target panel, Adrenergic α2A; type: binding; settings: Conc. 3 μM
Potassium Channel hERG = Potassium Channel hERG (Homo sapiens, UniProt Q12809); assay: in vitro
Description: Additionally, we tested LOC14 in CEREP's Safety47 panel, an in vitro pharmacological profiling to determine off-target liabilities that might exist against 47 human targets associated with safety issues (Table 3 and Table 4).

KvLQT1/minK = target: T9, KvLQT1/minK (Homo sapiens, UniProt P51787); assay: Safety47 panel ion channel KvLQT1/minK; type: cell-based; settings: 3 μM
T9 construct: CEREP (CRO panel)
Text: as §1

PDE3A = target: T10, PDE3A (Homo sapiens, UniProt Q14432); assay: Safety47 panel non-kinase enzyme PDE3A; type: biochemical; settings: Inhibitor mode; 3 μM
T10 construct: CEREP (CRO panel)
Text: as §1

PC12 mHTTQ103 cells = assay: Rescue of PC12 cells from mHTTQ103-induced cell death; type: cell-based, rat; settings: for pEC50: Rattus norvegicus, PC-12
hERG = target: T11, hERG (Homo sapiens, UniProt Q12809); assay: Safety47 panel ion channel hERG; type: cell-based; settings: Blocker mode; 3 μM
T11 construct: CEREP (CRO panel)
Text: as §1

Adrenergic α1A = Adrenergic α1A (Rattus norvegicus, UniProt P43140); assay: Off-target panel, Adrenergic α1A; type: binding; settings: Conc. 3 μM
Muscarinic M2 = Muscarinic M2 (Homo sapiens, UniProt P08172); assay: Off-target panel, Muscarinic M2; type: binding; settings: Conc. 3 μM
DAT = target: T12, DAT (Homo sapiens, UniProt Q01959); assay: Safety47 panel transporter DAT; type: cell-based; settings: Blocker mode; 3 μM
T12 construct: CEREP (CRO panel)
Text: as §1

Dopamine D1 = Dopamine D1 (Homo sapiens, UniProt P21728); assay: Off-target panel, Dopamine D1; type: binding; settings: Conc. 3 μM
Adrenergic β1 = Adrenergic β1 (Homo sapiens, UniProt P08588); assay: Off-target panel, Adrenergic β1; type: binding; settings: Conc. 3 μM
Sequence of Adrenergic β1 (P08588 whole entry): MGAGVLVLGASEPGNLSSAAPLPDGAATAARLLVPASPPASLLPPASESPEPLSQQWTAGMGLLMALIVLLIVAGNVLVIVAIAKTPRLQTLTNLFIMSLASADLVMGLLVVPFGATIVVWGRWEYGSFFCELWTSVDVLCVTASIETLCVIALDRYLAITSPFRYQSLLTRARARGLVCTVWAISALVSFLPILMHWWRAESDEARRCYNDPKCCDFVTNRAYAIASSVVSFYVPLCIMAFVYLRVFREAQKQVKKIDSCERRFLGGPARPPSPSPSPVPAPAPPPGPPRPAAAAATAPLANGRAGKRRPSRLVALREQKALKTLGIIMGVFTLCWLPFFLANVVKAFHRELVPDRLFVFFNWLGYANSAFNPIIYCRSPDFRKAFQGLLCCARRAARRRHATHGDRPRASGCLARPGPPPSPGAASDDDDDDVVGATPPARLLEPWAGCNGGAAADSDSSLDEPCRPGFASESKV

[4] = tested on: uninduced PC12 cells not expressing mHTTQ103; assay: General cell toxicity in PC12 cell culture assay; type: cell-based
Description: Neuroprotection was assessed by each compound's ability to rescue cells from mutant-huntingtin-induced cell death (“Ind Q103” cells; blue). General cell toxicity of each compound was assessed in uninduced cells not expressing mutant-huntingtin protein (“Unind Q103” cells; red). NMP, DMSO, LOC14 in NMP and LOC14 in DMSO were used as controls.
Data from cells induced to express mHTT^Q103 (blue) and cells not expressing mHTT^Q103 (red) are plotted as mean percent of DMSO-treated uninduced cells±SD with n=3.
The follow-up testing of primary screen hits was performed in a similar way. Fresh powder stocks of primary hits were re-ordered from vendors, dissolved in DMSO and tested in a two-fold serial dilution across 10 wells in both tebufenozide-induced and uninduced PC12 mHTT^Q103 cells. Dose-response curves were plotted as mean±SD and fit to either four-parameter sigmoidal (for uninduced cells) or bell-shaped (induced) function using Prism (GraphPad Software).

wild-type PDIa = target: T13, wild-type PDIa (Homo sapiens, UniProt P07237); assay: MALDI-TOF mass spectrometry with wild-type PDIa; type: binding
T13 construct: made in house; host or cells: Escherichia coli BL21-Gold (DE3)
Text: As mentioned, we synthesized several fluorine-containing analogs of LOC14 (analogs LC-43 and LC-40). Addition of fluorine was the only modification that was tolerated at the ortho position without a complete loss of activity in cells and in targeting PDI in vitro (Table 9). […] We hypothesized that these compounds might be binding to PDI covalently, and therefore would not show heat evolution by calorimetry. To test this hypothesis, we conducted MALDI-TOF mass-spectrometry experiments with wild-type PDIa and LC-43. […] This confirmed that LC-43 did indeed bind to PDIa, and that this binding was […]. The lack of binding by ITC might be again caused because LC-43 interaction with PDI is entropy-driven with small enthalpic changes. […] Additionally, we evaluated LC-43 using a genetically encoded redox reporter transfected into neurons. […] In contrast, treatment with the non-selective reducing agent dithiothreitol (DTT) produces an immediate and dramatic reduction in the roGFP2 fluorescence ratio that leads rapidly to cell degeneration and death (FIG. 16D). […] This single fluorine atom substitution in LOC14 structure seems to be an improvement in the design of compounds with more favorable drug properties.

[5] = Tables 5-13, solvent not given (DMSO in Table 1)
[6] = Tables 5-13, PC12 cells, read-out: EC50
[7] = rescue from mHTTQ103 induced cell death

T1 sequence (P10275 whole entry): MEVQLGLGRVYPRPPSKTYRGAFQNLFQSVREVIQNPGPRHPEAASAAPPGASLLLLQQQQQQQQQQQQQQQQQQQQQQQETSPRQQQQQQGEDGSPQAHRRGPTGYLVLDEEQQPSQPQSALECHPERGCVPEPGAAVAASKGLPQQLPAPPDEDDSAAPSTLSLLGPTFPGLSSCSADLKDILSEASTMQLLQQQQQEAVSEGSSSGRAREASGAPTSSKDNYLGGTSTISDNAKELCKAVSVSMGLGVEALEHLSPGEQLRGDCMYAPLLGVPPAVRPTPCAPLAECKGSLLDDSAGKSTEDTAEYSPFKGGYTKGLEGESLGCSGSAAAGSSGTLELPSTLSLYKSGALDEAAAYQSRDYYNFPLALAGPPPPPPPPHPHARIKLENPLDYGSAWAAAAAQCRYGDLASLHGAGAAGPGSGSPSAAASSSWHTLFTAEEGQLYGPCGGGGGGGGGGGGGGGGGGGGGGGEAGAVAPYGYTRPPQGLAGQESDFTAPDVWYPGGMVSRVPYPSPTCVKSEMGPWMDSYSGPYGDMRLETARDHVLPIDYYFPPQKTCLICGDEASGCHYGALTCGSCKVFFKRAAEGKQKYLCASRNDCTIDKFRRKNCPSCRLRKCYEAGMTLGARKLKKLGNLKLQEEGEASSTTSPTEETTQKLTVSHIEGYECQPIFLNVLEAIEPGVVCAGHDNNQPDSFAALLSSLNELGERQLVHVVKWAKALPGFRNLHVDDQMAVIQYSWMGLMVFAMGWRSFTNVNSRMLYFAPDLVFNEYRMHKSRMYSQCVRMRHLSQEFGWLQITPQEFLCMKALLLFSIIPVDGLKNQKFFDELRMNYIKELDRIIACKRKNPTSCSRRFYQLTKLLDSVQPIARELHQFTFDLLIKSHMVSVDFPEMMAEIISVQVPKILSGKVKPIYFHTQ

For O=C(C1CC1)N1CCN(Cn2sc3ccccc3c2=O)CC1 [LOC14], the Average (AR; Agonist mode) was 0.0, the Average (AR; Antagonist mode) was 5.4 and the “activity (response) against muscarinic acetylcholine receptor M2” value [1] was < 95% and 70%. For the same compound, the inhibition at 3 µM (Sigma σ1) was -8%, the “inhibition of CYP1A2” value (CYP1A2) was “inhibits” and the Average (ROCK1) was 13.5. For the same compound, the Average (AChE) was 2.8, the Average (GR; Agonist mode) was 0.0 and the Average (GR; Antagonist mode) was 0.1. For the same compound, the inhibition at 3 µM [2] was 11%, the inhibition at 3 µM (Prostanoid EP4) was 32% and the Solubility [3] was 100 mM in DMSO. For the same compound, the “Solubility” value [3, 5] was 100 mM (≈ 31.7 mg/mL), the Average (nAChR(a4/b2); Blocker mode) was 10.1 and the Average (nAChR(a4/b2); Opener mode) was 0.0. The Average (COX2) was 2.8, the inhibition at 3 µM (Adrenergic α2A) was 7% and the inhibition at 3 µM (Potassium Channel hERG) was 10%. It also gave an Average (KvLQT1/minK; Blocker mode) of 0.0, an Average (KvLQT1/minK; Opener mode) of 9.8 and an Average (PDE3A) of 0.0. For the same compound, the pEC50 (PC12 mHTTQ103 cells; [6]) was 6.45, the pEC50 (PC12 mHTTQ103 cells; rescue from mHTTQ103 induced cell death, read-out: PC12 cells EC50) was 6.45 and the “Max Viability (%)” value (PC12 mHTTQ103 cells; Tables 5-13, PC12 cells) was 66%. The EC100 (PC12 mHTTQ103 cells; protection from mHTT toxicity, FIG. 13A) was 3.1 µM, the “PC12 cells Max % Viability” value (PC12 mHTTQ103 cells; [7]) was 66.25% and the Average (hERG) was 5.9. It also gave an inhibition at 3 µM (Adrenergic α1A) of -14%, an inhibition at 3 µM (Muscarinic M2) of -3% and an Average (DAT) of 0.0. For the same compound, the inhibition at 3 µM (Dopamine D1) was 34% and the inhibition at 3 µM (Adrenergic β1) was 7%.

In the case of O=C(C1CC1)N1CCN(Cn2sc3c(F)cccc3c2=O)CC1 [LC-43], the “toxicity in PC12 cell culture assay” value [4] was “decreased cellular toxicity”, the “change in mass of wild-type PDIa (MALDI-TOF)” value (wild-type PDIa) was “no change in mass” and the Solubility [3] was 100 mM in DMSO. The “Solubility” value [3, 5] was 100 mM (≈ 33.5 mg/mL), the pEC50 (PC12 mHTTQ103 cells; [6]) was 5.13 and the “Max Viability (%)” value (PC12 mHTTQ103 cells; Tables 5-13, PC12 cells) was 56%. For the same compound, the “PC12 cells Max % Viability” value (PC12 mHTTQ103 cells; [7]) was 56.48%.

From patent publication US20220380383A1, “NEUROPROTECTIVE PDI MODULATING SMALL MOLECULES AND METHODS OF USE THEREOF” (THE TRUSTEES OF COLUMBIA UNIVERSITY IN THE CITY OF NEW YORK, priority 2018, published 2022)
